Values quoted from earlier work in patent publication US11339174B2, “γ-spiroketal-γ-lactones and pharmaceutical composition containing same and process for preparation thereof” (Council of Scientific and Industrial Research, priority 2017, dated 2022).
Values after ≈ are worked out from the molar mass of the structure shown.

Experiments:
HL-60 = conditions: anticancer

Compound	IC50 against HL-60 (HL-60) [µg/mL]	activity against Staphylococcus aureus (Staphylococcus aureus)	activity against Bacillus subtilis (Bacillus subtilis)
C[C@H]1O[C@@H]2C[C@]3(C=CC(=O)O3)O[C@@H]2[C@H]1O [pyrenolide D]	4 (≈ 18.9 µM)	–	–
massarinoline A	–	active	active
